Assay results taken from patent publication US10000484B2, “Inhibitors of the renal outer medullary potassim channel” (MERCK SHARP & DOHME CORP., priority 2013, dated 2018).

molecular target: T1, hROMK (hKir1.1) (Homo sapiens, UniProt P48048); assay: Thallium Flux Assay (ROMK channel functional thallium flux assay, FLIPR-Tetra); type: cell-based; conditions: HEK293 cells stably expressing hROMK; 30 min incubation with compound
T1 construct: expressed in transfected cells
T1 sequence (P48048 1-391): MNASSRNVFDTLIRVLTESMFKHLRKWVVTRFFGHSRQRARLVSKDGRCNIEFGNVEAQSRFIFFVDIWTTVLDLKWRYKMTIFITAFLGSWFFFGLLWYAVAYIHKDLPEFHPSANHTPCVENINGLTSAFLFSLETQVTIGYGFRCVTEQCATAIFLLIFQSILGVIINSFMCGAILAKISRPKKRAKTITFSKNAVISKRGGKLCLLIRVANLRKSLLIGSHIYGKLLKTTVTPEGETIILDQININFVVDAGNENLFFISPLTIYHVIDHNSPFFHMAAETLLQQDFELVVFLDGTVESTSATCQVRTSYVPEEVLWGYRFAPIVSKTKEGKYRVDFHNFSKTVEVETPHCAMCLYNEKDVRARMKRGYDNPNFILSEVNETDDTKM
Procedure: The following Thallium Flux Assay was performed on each of the final product compounds in the Examples. When the final product of an Example was an HCl salt, the salt was run in the Assay.
HEK293 cells stably expressing hROMK (hKir1.1) were grown at 37° C. in a 10% CO2 humidified incubator in complete growth media: Dulbecco's Modified Eagle Medium supplemented with non-essential amino acids, Penicillin/Streptomycin/Glutamine, G418 and FBS. At >80% confluency, aspirate the media from the flask and rinse with 10 mL Calcium/Magnesium-free PBS. Add 5 mL of 1× trypsin (prepared in Ca/Mg Free PBS) to T-225 flask and return flask to 37° C./CO2 incubator for 2-3 minutes. To dislodge the cell, gently bang the side of the flask with your hand. Triturate the cells completely and then transfer the cells to 25 mL complete media. Centrifuge at 1,500 rpm for 6 min followed by resuspension in complete growth media and determine cell concentration. For typical re-seeding, 4E6 cells/T-225 flask will attain >80% confluency in 4 days. Under ideal growth conditions and appropriate tissue culture practices, this cell line is stable for 40-45 passages.
FluxOR Kit Components (Invitrogen F10017)
• FluxOR™ Reagent (Component A) • FluxOR™ Assay Buffer (Component B)—10× Concentrate • PowerLoad™ Concentrate (Component C)—100× Concentrate • Probenecid (Component D)—Lyophilized sample is kept at −20° C. Water soluble, 100× after solubilization in 1 mL water. Store at 4° C. • FluxOR™ Chloride-free Buffer (Component E)—5× Concentrate • Potassium sulfate (K2SO4) Concentrate (Component F)—125 mM in water. Store at 4° C. • Thallium sulfate (Tl2SO4) Concentrate (Component G)—50 mM in water. Store at 4° C. • DMSO (dimethyl sulfoxide, Component H)—1 mL (100%) Reagent Preparation: FluxOR Working Solutions • 1000× FluxOR™ Reagent: Reconstitute a vial of component A in 100 μl DMSO; Mix well; Store 10 μl aliquots at −20° C. • 1× FluxOR™ Assay Buffer: Dilute Component B 10-fold with water; Adjust pH to 7.4 with Hepes/NaOH; Filter and store at 4° C. • Probenecid/Assay Buffer: 100 mL of 1× FluxOR™ Assay Buffer; 1 mL of reconstituted component D; Store at 4° C. • Loading Buffer (per microplate): 10 μl 1000× FluxOR™ Reagent; 100 μl component C; 10 mL Probenecid/Assay Buffer • Compound Buffer (per microplate): 20 mL Probenecid/Assay Buffer; 0.3 mM ouabain (10 mM ouabain in water can be stored in amber bottle/aluminum foil at room temperature); Test compound • 1× FluxOR™ Chloride-Free Buffer: Prepare 1× working solution in water. Can be stored at room temperature • Stimulant Buffer (prepared at 5× final concentration in 1× FluxOR™ Chloride-Free Buffer): 7.5 mM Thallium sulfate and 0.75 mM Potassium sulfate (to give a final assay concentration of 3 mM Thallium/0.3 mM Potassium). Store at 4° C. when not in use. Assay Protocol—
The ROMK channel functional thallium flux assay is performed in 384 wells, using the FLIPR-Tetra instrument. HEK-hKir1.1 cells are seeded in Poly-D-Lysine microplates and kept in a 37° C.-10% CO2 incubator overnight. On the day of the experiment, the growth media is replaced with the FluxOR™ reagent loading buffer and incubated, protected from light, at ambient temperature (23-25° C.) for 90 min. The loading buffer is replaced with assay buffer±test compound followed by 30 min incubation at ambient temperature, where the Thallium/Potassium stimulant is added to the microplate.
1. Seed HEK-hKir1.1 cells (50 μl at 20,000 cells/well) in 384-well PDL coated Microplates
2. Allow cells to adhere overnight in humidified 37° C./10% CO2 incubator
3. Completely remove cell growth media from microplate and replace with 25 μl loading buffer
4. Incubate Microplate at room temperature, protected form light, for 90 min
5. Remove loading buffer and replace with 25 μl 1× Assay Buffer±test compound.
6. Incubate microplate at room temperature, protected from light, for 30 min
7. At FLIPR-Tetra 384: Add stimulant (Thallium/Potassium) solution to microplate and monitor fluorescence. […]

Compound	IC50
Cc1cc(C#N)ccc1-c1ncc2c(n1)CCN(CCc1ccc3c(c1C)COC3=O)C2 [Example 1, 3-methyl-4-(6-(2-(4-methyl-1-oxo-1,3-dihydroisobenzofuran-5-yl)ethyl)-5,6,7,8-tetrahydropyrido[4,3-d]pyrimidin-2-yl)benzonitrile]	0.477 µM
N#Cc1ccc(-n2cc3c(n2)CCN(CCc2ccc4c(c2)COC4=O)C3)cc1 [Example 5, 4-{5-[2-(1-oxo-1,3-dihydro-2-benzofuran-5-yl)ethyl]-4,5,6,7-tetrahydro-2H-pyrazolo[4,3-c]pyridin-2-yl}benzonitrile]	0.0438 µM
O=C1OCc2cc(CCN3CCc4nc(-c5ccc(-n6cnnn6)cc5)ncc4C3)ccc21 [Example 6, 6-[2-(1-oxo-1,3-dihydro-2-benzofuran-5-yl)ethyl]-2-[4-(1H-tetrazol-1-34)phenyl]-5,6,7,8-tetrahydropyrido[4,3-d]pyrimidine-1,6-diium]	0.074 µM
Cc1c(CCN2CCc3nc(-c4ccc(-n5cnnn5)cc4)ncc3C2)ccc2c1COC2=O [Example 7, 6-[2-(4-methyl-1-oxo-1,3-dihydro-2-benzofuran-5-yl)ethyl]-2-[4-(1H-tetrazol-1-yl)phenyl]-5,6,7,8-tetrahydropyrido[4,3-d]pyrimidine-1,6-diium]	0.168 µM
COc1cc(-c2ncc3c(n2)CCN(CCc2ccc4c(c2C)COC4=O)C3)ccc1C#N [Example 11, 2-methoxy-4-{6-[2-(4-methyl-1-oxo-1,3-dihydro-2-benzofuran-5-yl)ethyl]-5,6,7,8-tetrahydropyrido[4,3-d]pyrimidin-2-yl}benzonitrile]	0.0838 µM
Cc1c(CCN2CCn3c(-c4ccc5c(c4)COC5=O)cnc3C2)ccc2c1COC2=O [Example 12, 4-methyl-5-{2-[3-(1-oxo-1,3-dihydro-2-benzofuran-5-yl)-5,6-dihydroimidazo[1,2-a]pyrazin-7(8H)-yl]ethyl}-2-benzofuran-1(3H)-one]	0.124 µM
Cc1c(CCN2CCn3cc(-c4ccc5c(c4)COC5=O)nc3C2)ccc2c1COC2=O [Example 13, 4-methyl-5-{2-[2-(1-oxo-1,3-dihydro-2-benzofuran-5-yl)-5,6-dihydroimidazo[1,2-a]pyrazin-7(8H)-yl]ethyl}-2-benzofuran-1(3H)-one]	0.134 µM
COc1cc(-c2nnc3n2CCN(CCc2ccc4c(c2C)COC4=O)C3)ccc1C#N [Example 14, 2-methoxy-4-{7-[2-(4-methyl-1-oxo-1,3-dihydro-2-benzofuran-5-yl)ethyl]-5,6,7,8-tetrahydro[1,2,4]triazolo[4,3-a]pyrazin-3-yl}benzonitrile]	0.085 µM
Cc1c(CCN2CCn3nc(-c4ccc5c(c4)COC5=O)nc3C2)ccc2c1COC2=O [Example 16, 4-methyl-5-{2-[2-(1-oxo-1,3-dihydro-2-benzofuran-5-yl)-5,6-dihydro[1,2,4]triazolo[1,5-a]pyrazin-7(8H)-yl]ethyl}-2-benzofuran-1(3H)-one]	0.089 µM
Cc1c(CCN2CCn3cc(-c4ccc5c(c4)CCOC5=O)nc3C2)ccc2c1COC2=O [Example 17, 6-{7-[2-(4-methyl-1-oxo-1,3-dihydro-2-benzofuran-5-yl)ethyl]-5,6,7,8-tetrahydroimidazo[1,2-a]pyrazin-2-yl}-3,4-dihydro-1H-isochromen-1-one]	0.654 µM
Cc1c(CCN2CCc3nc(-c4ccc5c(c4)COC5=O)oc3C2)ccc2c1COC2=O [Example 18, 4-methyl-5-{2-[2-(1-oxo-1,3-dihydro-2-benzofuran-5-yl)-6,7-dihydro[1,3]oxazolo[5,4-c]pyridin-5(4H)-yl]ethyl}-2-benzofuran-1(3H)-one]	0.0747 µM
C[C@H]1Cc2cc(CCN3CCn4cc(-c5ccc6c(c5)COC6=O)nc4C3)ccc2C(=O)O1 [Example 19, (3S)-3-methyl-6-{2-[2-(1-oxo-1,3-dihydro-2-benzofuran-5-yl)-5,6-dihydroimidazo[1,2-a]pyrazin-7(8H)-yl]ethyl}-3,4-dihydro-1H-isochromen-1-one]	0.198 µM
O=C1OCCc2cc(CCN3CCn4cc(-c5ccc6c(c5)COC6=O)nc4C3)ccc21 [Example 20, 6-{2-[2-(1-oxo-1,3-dihydro-2-benzofuran-5-yl)-5,6-dihydroimidazo[1,2-a]pyrazin-7(8H)-yl]ethyl}-3,4-dihydro-1H-isochromen-1-one]	0.192 µM
Cc1c(CCN2CCc3nc(-c4ccc(C#N)cn4)ncc3C2)ccc2c1COC2=O [Example 21]	0.449 µM
Cc1c(CCN2CCc3nc(-c4ccc(F)c(C#N)c4)ncc3C2)ccc2c1COC2=O [Example 22]	0.441 µM
COc1ccc(-c2ncc3c(n2)CCN(CCc2ccc4c(c2C)COC4=O)C3)cc1C#N [Example 23]	0.208 µM
Cc1c(CCN2CCn3c(nn(-c4ccc(C#N)c(F)c4)c3=O)C2)ccc2c1COC2=O [Example 24, 2-fluoro-4-{7-[2-(4-methyl-1-oxo-1,3-dihydro-2-benzofuran-5-yl)ethyl]-3-oxo-5,6,7,8-tetrahydro[1,2,4]triazolo[4,3-a]pyrazin-2(3H)-yl}benzonitrile]	0.177 µM
Cc1c(CCN2CCn3c(nn(-c4ccc5c(c4)COC5=O)c3=O)C2)ccc2c1COC2=O [Example 25, 7-[2-(4-methyl-1-oxo-1,3-dihydro-2-benzofuran-5-yl)ethyl]-2-(1-oxo-1,3-dihydro-2-benzofuran-5-yl)-5,6,7,8-tetrahydro[1,2,4]triazolo[4,3-a]pyrazin-3(2H)-one]	0.0928 µM
Cc1c(CCN2CCc3nc(-c4ccc(C#N)cc4F)ncc3C2)ccc2c1COC2=O [Example 26]	0.314 µM
Cc1c(CCN2CCc3nc(-c4ccc(C#N)c(F)c4)ncc3C2)ccc2c1COC2=O [Example 27]	0.0702 µM
Cc1c(CCN2CC[C@H]3[C@@H](C2)OC(=O)N3Cc2ccc3c(c2C)COC3=O)ccc2c1COC2=O [Example 28]	0.113 µM
Cc1c(CCN2CC[C@@H]3[C@@H](C2)OC(=O)N3Cc2ccc3c(c2C)COC3=O)ccc2c1COC2=O [Example 29]	0.201 µM
Cc1c(CCN2CCc3c(cnn3-c3ccc(C#N)c(F)c3)C2)ccc2c1COC2=O [Example 30, 2-fluoro-4-(5-(2-(4-methyl-1-oxo-1,3-dihydroisobenzofuran-5-yl)ethyl)-4,5,6,7-tetrahydro-1H-pyrazolo[4,3-c]pyridin-1-yl)benzonitrile]	0.0275 µM
CC1=C(N2CC3=C(CCN(C[C@H](O)c4ccc5c(c4C)COC5=O)CC3)C2=O)COC1=O [Example 31, (R)-6-(2-Hydroxy-2-(4-methyl-1-oxo-1,3-dihydroisobenzofuran-5-yl)ethyl)-2-(4-methyl-5-oxo-2,5-dihydrofuran-3-yl)-2,3,5,6,7,8-hexahydropyrrolo[3,4-d]azepin-1(4H)-one]	0.064 µM
